“And” between values parts separate entries of the source, which are not always exact repeats. Equal values may be shown once. Inconclusive results and toxic doses are left out. No stated cut-off is given here; in the data, active means T/C of 150% or more; inactive means T/C below 125%.
Test system: L1210 leukemia ip in BDF1 mice, survival T/C
Assay: NCI In Vivo Anticancer Drug Screen. Data for tumor model L1210 Leukemia (intraperitoneal) in B6D2F1 (BDF1) mice
Conditions: endpoint: mean survival time, higher = longer survival
Procedure, shortened: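 Read-out is survival time, reported as the treated-group measurement over the vehicle-control measurement.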

[1] = dose: 100.0 mg/kg/injection, schedule: Q01DX001 (ip), vehicle: saline
[2] = dose: 200.0 mg/kg/injection, schedule: Q01DX001 (ip), vehicle: saline
[3] = dose: 400.0 mg/kg/injection, schedule: Q01DX001 (ip), vehicle: saline
[4] = dose: 50.0 mg/kg/injection, schedule: Q01DX001 (ip), vehicle: saline
[5] = dose: 100.0 mg/kg/injection, schedule: Q01DX001 (ip), vehicle: Klucel (hydroxypropylcellulose) (HPC)
[6] = dose: 200.0 mg/kg/injection, schedule: Q01DX001 (ip), vehicle: Klucel (hydroxypropylcellulose) (HPC)
[7] = dose: 100.0 mg/kg/injection, schedule: Q01DX009 (ip), vehicle: saline
[8] = dose: 200.0 mg/kg/injection, schedule: Q01DX009 (ip), vehicle: saline
[9] = dose: 400.0 mg/kg/injection, schedule: Q01DX009 (ip), vehicle: saline
[10] = dose: 100.0 mg/kg/injection, schedule: Q04DX003 (ip), vehicle: Klucel (hydroxypropylcellulose) (HPC)
[11] = dose: 200.0 mg/kg/injection, schedule: Q04DX003 (ip), vehicle: Klucel (hydroxypropylcellulose) (HPC)
[12] = dose: 400.0 mg/kg/injection, schedule: Q04DX003 (ip), vehicle: Klucel (hydroxypropylcellulose) (HPC)
[13] = dose: 100.0 mg/kg/injection, schedule: Q04DX002 (ip), vehicle: saline
[14] = dose: 200.0 mg/kg/injection, schedule: Q04DX002 (ip), vehicle: saline
[15] = dose: 400.0 mg/kg/injection, schedule: Q04DX002 (ip), vehicle: saline
[16] = dose: 50.0 mg/kg/injection, schedule: Q01DX009 (ip), vehicle: saline with Tween-80
[17] = dose: 100.0 mg/kg/injection, schedule: Q01DX009 (ip), vehicle: saline with Tween-80

Measured: T/C

O=c1cc(NCc2cccc3ccccc23)[nH]c(=O)[nH]1
inactive: dose: 37.5 mg/kg/injection, schedule: Q01DX001 (ip), vehicle: Klucel (hydroxypropylcellulose) (HPC) 97 % of control | dose: 75.0 mg/kg/injection, schedule: Q01DX001 (ip), vehicle: Klucel (hydroxypropylcellulose) (HPC) 95 % of control | dose: 150.0 mg/kg/injection, schedule: Q01DX001 (ip), vehicle: Klucel (hydroxypropylcellulose) (HPC) 93 % of control

CN(C)N1CCC2(CCC(C(C)(C)C)CC2)CC1
inactive: dose: 50.0 mg/kg/injection, schedule: Q01DX001 (ip), vehicle: carboxymethylcellulose (CMC) 101 % of control | dose: 100.0 mg/kg/injection, schedule: Q01DX001 (ip), vehicle: carboxymethylcellulose (CMC) 95 % of control

Cn1nnc(CCO)n1
inactive: [1] 95 % of control | [2] 95 % of control | [3] 100 % of control

CC1CCC2C(C)C3C(CC4C5CCC6CC(O)CCC6(C)C5CCC43C)N2C1 (stereo not given)
inactive: dose: 50.0 mg/kg/injection, schedule: Q01DX001 (ip), vehicle: other 91 % of control | dose: 100.0 mg/kg/injection, schedule: Q01DX001 (ip), vehicle: other 88 % of control | dose: 200.0 mg/kg/injection, schedule: Q01DX001 (ip), vehicle: other 96 % of control | dose: 400.0 mg/kg/injection, schedule: Q01DX001 (ip), vehicle: other 91 % of control

NC(=S)N/N=C/c1ccc(F)cn1
inactive: dose: 1.56 mg/kg/injection, schedule: Q01DX009 (ip), vehicle: saline with Tween-80 99 % of control | dose: 3.13 mg/kg/injection, schedule: Q01DX009 (ip), vehicle: saline with Tween-80 106 % of control and 115 % of control | dose: 5.54 mg/kg/injection, schedule: Q01DX009 (ip), vehicle: saline with Tween-80 108 % of control | dose: 6.25 mg/kg/injection, schedule: Q01DX009 (ip), vehicle: saline with Tween-80 119 % of control | dose: 6.25 mg/kg/injection, schedule: Q04DX002 (ip), vehicle: saline with Tween-80 104 % of control | dose: 8.32 mg/kg/injection, schedule: Q01DX009 (ip), vehicle: saline with Tween-80 114 % of control | dose: 12.5 mg/kg/injection, schedule: Q01DX009 (ip), vehicle: saline with Tween-80 119 % of control and 124 % of control | dose: 12.5 mg/kg/injection, schedule: Q04DX002 (ip), vehicle: saline with Tween-80 112 % of control | dose: 18.8 mg/kg/injection, schedule: Q01DX009 (ip), vehicle: saline with Tween-80 98 % of control | dose: 22.0 mg/kg/injection, schedule: Q01DX001 (ip), vehicle: saline with Tween-80 105 % of control | dose: 25.0 mg/kg/injection, schedule: Q04DX002 (ip), vehicle: saline with Tween-80 97 % of control | dose: 33.0 mg/kg/injection, schedule: Q01DX001 (ip), vehicle: saline with Tween-80 107 % of control

CC1=CC(=O)[C@@H](O)[C@]2(C)[C@H]3[C@@]4(O)OC[C@]35[C@H]([C@@H](C)[C@H]4O)[C@@H](OC(=O)c3ccccc3)C(=O)O[C@@H]5C[C@@H]12
inactive: dose: 0.25 mg/kg/injection, schedule: Q01DX009 (ip), vehicle: saline with Tween-80 102 % of control | dose: 0.5 mg/kg/injection, schedule: Q01DX009 (ip), vehicle: saline with Tween-80 103 % of control | dose: 1.0 mg/kg/injection, schedule: Q01DX009 (ip), vehicle: saline with Tween-80 103 % of control | dose: 2.0 mg/kg/injection, schedule: Q01DX009 (ip), vehicle: saline with Tween-80 108 % of control | dose: 4.0 mg/kg/injection, schedule: Q01DX009 (ip), vehicle: saline with Tween-80 111 % of control

CCOC(=O)CC(C)(C)C1CC1
inactive: [4] 91 % of control | [1] 96 % of control | [2] 96 % of control | [3] 94 % of control

C/C(=N/NC(N)=S)c1ccc[nH]1
inactive: [5] 108 % of control | [6] 93 % of control

c1csc(C[N+]23CN4CN(CN(C4)C2)C3)c1
inactive: [7] 92 % of control | [8] 103 % of control | [9] 101 % of control

Cc1ncnc2[nH]c(=S)[nH]c12
inactive: dose: 75.0 mg/kg/injection, schedule: Q01DX001 (ip), vehicle: saline 105 % of control | dose: 150.0 mg/kg/injection, schedule: Q01DX001 (ip), vehicle: saline 101 % of control | dose: 300.0 mg/kg/injection, schedule: Q01DX001 (ip), vehicle: saline 100 % of control

COc1cccc(CC(=O)c2c[nH]c3ccccc23)c1
inactive: [4] 104 % of control | [1] 101 % of control | [2] 98 % of control | [3] 101 % of control

CCOC(=O)c1[nH]c(-c2ccccc2)c(C(=O)OCC)c1-c1ccccc1
inactive: [10] 100 % of control | [11] 103 % of control | [12] 115 % of control

CC[N+](C)(CC)CCN1C(=O)c2ccccc2S1(=O)=O
inactive: dose: 44.0 mg/kg/injection, schedule: Q01DX Z (ip), vehicle: saline 108 % of control | dose: 66.0 mg/kg/injection, schedule: Q01DX Z (ip), vehicle: saline 98 % of control

ClC1(Cl)C2CCCOC21 (stereo not given)
inactive: dose: 100.0 mg/kg/injection, schedule: Q01DX009 (ip), vehicle: Klucel (hydroxypropylcellulose) (HPC) 97 % of control | dose: 200.0 mg/kg/injection, schedule: Q01DX009 (ip), vehicle: Klucel (hydroxypropylcellulose) (HPC) 100 % of control | dose: 400.0 mg/kg/injection, schedule: Q01DX009 (ip), vehicle: Klucel (hydroxypropylcellulose) (HPC) 98 % of control

Cc1ccc(CN(C)N=Nc2ccccc2)cc1
inactive: dose: 100.0 mg/kg/injection, schedule: Q04DX002 (ip), vehicle: Klucel (hydroxypropylcellulose) (HPC) 91 % of control | dose: 200.0 mg/kg/injection, schedule: Q04DX002 (ip), vehicle: Klucel (hydroxypropylcellulose) (HPC) 102 % of control

CCCC(NC(C)=O)C(=O)O (stereo not given)
inactive: [1] 94 % of control | [7] 94 % of control and 101 % of control | [13] 98 % of control and 111 % of control and 112 % of control | dose: 100.0 mg/kg/injection, schedule: Q04DX003 (ip), vehicle: saline 98 % of control | [2] 96 % of control | [8] 94 % of control and 90 % of control | [14] 108 % of control and 122 % of control and 123 % of control | dose: 200.0 mg/kg/injection, schedule: Q04DX003 (ip), vehicle: saline 96 % of control | [3] 93 % of control | [9] 99 % of control and 87 % of control | [15] 98 % of control and 111 % of control and 112 % of control | dose: 400.0 mg/kg/injection, schedule: Q04DX003 (ip), vehicle: saline 95 % of control

CN(C)c1ccc(NC(=O)NCCCl)cc1
inactive: [10] 106 % of control | [11] 103 % of control

O=C1Nc2ccc3c(c2/C1=C\c1cc2c(cc1Br)OCO2)OCO3
inactive: dose: 50.0 mg/kg/injection, schedule: Q01DX001 (ip), vehicle: alcohol 93 % of control | dose: 100.0 mg/kg/injection, schedule: Q01DX001 (ip), vehicle: alcohol 93 % of control | dose: 200.0 mg/kg/injection, schedule: Q01DX001 (ip), vehicle: alcohol 98 % of control | dose: 400.0 mg/kg/injection, schedule: Q01DX001 (ip), vehicle: alcohol 96 % of control

C=C1CC(CC)C(C)OC1=O (stereo not given)
inactive: [1] 102 % of control | [2] 102 % of control | [3] 98 % of control

O=C(O)CCCCc1ccc(CCCCC(=O)O)cc1
inactive: [16] 96 % of control | [17] 106 % of control | [10] 97 % of control | [11] 104 % of control

COC(=O)N/N=C/C=C/c1ccccc1
inactive: dose: 25.0 mg/kg/injection, schedule: Q01DX009 (ip), vehicle: saline with Tween-80 101 % of control | [16] 105 % of control | [17] 97 % of control

CC(=O)CCSC(C)C
inactive: [16] 89 % of control | [17] 92 % of control | dose: 200.0 mg/kg/injection, schedule: Q01DX009 (ip), vehicle: saline with Tween-80 92 % of control

CCS(=O)(=O)/C=C/c1cccnc1
inactive: [13] 96 % of control | [14] 100 % of control | [15] 107 % of control

CCC[n+]1nc2ccccc2c(=Nc2ccccc2[N+](=O)[O-])[n-]1
inactive: [5] 100 % of control | [10] 98 % of control | [6] 100 % of control | [11] 106 % of control | dose: 400.0 mg/kg/injection, schedule: Q01DX001 (ip), vehicle: Klucel (hydroxypropylcellulose) (HPC) 98 % of control | [12] 101 % of control
